{
  "source": "patent US12012407B1",
  "about": "“Pyrazolo[1,5-a]pyrido[4,3-e]pyrimidine-3-carboxylic acids as CK2 inhibitors” (KING FAISAL UNIVERSITY, priority 2024, dated 2024)",
  "key": {"MCF7 (breast)": {"system": "MCF7 (breast)", "experiment": "In vitro cytotoxic activity (MTT) assay, MCF7", "assay_type": "cell-based", "conditions": "Homo sapiens; MCF7 (breast) cells, exposed for 96 hours; read-out: Cytotoxicity activity IC50 (50% inhibition of cell proliferation)", "protocol": "(§1) Compounds 1-16 were screened for their in vitro cytotoxic activity utilizing a 3-(4,5-dimethyl-thiazol-2-yl)-2,5-diphenyltetrazolium bromide (MTT) assay against selected cancer human cell lines consisting of PC3 (prostate), HCT116 (colon), A375 (melanoma), H1299 (lung), MIAPaCa-2 (pancreas), HL60 (leukemia), MCF7 (breast), MDA-MB-231 (breast) (T. Mosmann, J. Immunol. Meth., 1983, 65, 55-63). The cells were cultured at 37° C. in RMPI1640 medium supplemented with 10% fetal bovine serum, 50 IU/mL penicillin, and 50 μg/mL streptomycin in a 5% CO2 incubator. All cells were sub-cultured 3 times/week by trypsinisation. Viable cells were seeded and allowed to adhere for 12 hours before a test drug was added in 96-well plates at an initial density of 1.0×10^5 cells/mL. Tumor cell lines were separately exposed to various concentrations of the tested compounds followed by incubation at a temperature of 37° C. during 96 hours inside a medium of fresh RMPI 1640. Cells were subsequently incubated at 37° C. using MTT at 0.5 mg/mL during 4 hours. After removal of supernatant, formazan crystals were dissolved in isopropanol and the optical density was measured at 570 nm. CX-4945 was used as a positive control."}, "PC3 (prostate)": {"system": "PC3 (prostate)", "experiment": "In vitro cytotoxic activity (MTT) assay, PC3", "assay_type": "cell-based", "conditions": "Homo sapiens, Prostate cell; PC3 (prostate) cells, exposed for 96 hours; read-out: Cytotoxicity activity IC50 (50% inhibition of cell proliferation)", "protocol": "as §1"}, "MDA-MB-231 (breast)": {"system": "MDA-MB-231 (breast)", "experiment": "In vitro cytotoxic activity (MTT) assay, MDA-MB-231", "assay_type": "cell-based", "conditions": "Homo sapiens; MDA-MB-231 (breast) cells, exposed for 96 hours; read-out: Cytotoxicity activity IC50 (50% inhibition of cell proliferation)", "protocol": "as §1"}, "HL60 (leukemia)": {"system": "HL60 (leukemia)", "experiment": "In vitro cytotoxic activity (MTT) assay, HL60", "assay_type": "cell-based", "conditions": "Homo sapiens, HL-60; HL60 (leukemia) cells, exposed for 96 hours; read-out: Cytotoxicity activity IC50 (50% inhibition of cell proliferation)", "protocol": "as §1"}, "HCT116 (colon)": {"system": "HCT116 (colon)", "experiment": "In vitro cytotoxic activity (MTT) assay, HCT116", "assay_type": "cell-based", "conditions": "Homo sapiens, HCT-116; HCT116 (colon) cells, exposed for 96 hours; read-out: Cytotoxicity activity IC50 (50% inhibition of cell proliferation)", "protocol": "as §1"}, "A375 (melanoma)": {"system": "A375 (melanoma)", "experiment": "In vitro cytotoxic activity (MTT) assay, A375", "assay_type": "cell-based", "conditions": "Homo sapiens, A-375; A375 (melanoma) cells, exposed for 96 hours; read-out: Cytotoxicity activity IC50 (50% inhibition of cell proliferation)", "protocol": "as §1"}, "MIAPaCa-2 (pancreas)": {"system": "MIAPaCa-2 (pancreas)", "experiment": "In vitro cytotoxic activity (MTT) assay, MIAPaCa-2", "assay_type": "cell-based", "conditions": "Homo sapiens, MIA PaCa-2; MIAPaCa-2 (pancreas) cells, exposed for 96 hours; read-out: Cytotoxicity activity IC50 (50% inhibition of cell proliferation)", "protocol": "as §1"}, "[1]": {"target": "T1, recombinant human CK2 (RRBB-holoenzyme) (Homo sapiens, UniProt P68400)", "T1 construct": "purchased Millipore", "T1 sequence (P68400 whole entry)": "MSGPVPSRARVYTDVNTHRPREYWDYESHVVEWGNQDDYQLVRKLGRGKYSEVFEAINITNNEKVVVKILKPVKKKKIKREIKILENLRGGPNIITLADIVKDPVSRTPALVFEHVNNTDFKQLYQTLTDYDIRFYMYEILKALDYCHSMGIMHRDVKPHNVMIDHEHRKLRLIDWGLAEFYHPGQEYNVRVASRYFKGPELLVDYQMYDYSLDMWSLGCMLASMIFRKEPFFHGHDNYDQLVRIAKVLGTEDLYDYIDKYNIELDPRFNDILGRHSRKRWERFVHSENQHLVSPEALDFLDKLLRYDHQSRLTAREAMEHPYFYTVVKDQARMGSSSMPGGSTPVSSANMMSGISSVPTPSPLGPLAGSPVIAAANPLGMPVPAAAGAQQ", "T1 sequence (P67870 whole entry partner)": "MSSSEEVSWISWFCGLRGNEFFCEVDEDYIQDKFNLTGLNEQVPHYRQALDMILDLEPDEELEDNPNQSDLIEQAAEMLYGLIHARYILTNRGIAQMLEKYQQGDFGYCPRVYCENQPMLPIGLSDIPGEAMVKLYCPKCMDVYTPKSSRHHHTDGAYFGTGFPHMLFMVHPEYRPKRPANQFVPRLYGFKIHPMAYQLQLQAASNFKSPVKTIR", "experiment": "CK2 Kinase Assay (33P-ATP, filter plate)", "assay_type": "biochemical", "conditions": "final ATP concentration 15 μM, 10 min at 30° C., eight concentrations; read-out: protein kinase CK2 inhibition IC50", "protocol": "CK2 Kinase Assay was conducted using the protocol as described in Pierre F. et al; J. Med. Chem. 2011, 54, 635-654. The tested compounds in aqueous solution were added at a volume of 10 μL to a reaction mixture comprising 10 μL of assay dilution buffer (ADB; 20 mM MOPS, pH 7.2, 25 mM β-glycerol phosphate, 5 mM EGTA, 1 mM sodium orthovanadate, and 1 mM dithiothreitol), 10 μL of substrate peptide (RRRDDDSDDD, dissolved in ADB at a concentration of 1 mM), 10 μL of recombinant human CK2 (RRBB-holoenzyme, 25 ng dissolved in ADB; Millipore). Reactions were initiated by the addition of 10 μL of ATP solution (90% 75 mMMgCl2, 75 μM ATP (final ATP concentration: 15 μM) dissolved in ADB; 10% [Y-33P] ATP (stock 1 mCi/100 μL; 3000 Ci/mmol (Perkin-Elmer) and maintained for 10 min at 30° C. The reactions were quenched with 100 μL of 0.75% phosphoric acid and then transferred to and filtered through a phosphor cellulose filter plate (Millipore). After washing each well five times with 0.75% phosphoric acid, the plate was dried under vacuum for 5 min and, following the addition of 15 μL of scintillation fluid to each well, the residual radioactivity was measured using a Wallac luminescence counter. The IC50 values were derived from eight concentrations of test inhibitors."}, "H1299 (lung)": {"system": "H1299 (lung)", "experiment": "In vitro cytotoxic activity (MTT) assay, H1299", "assay_type": "cell-based", "conditions": "Homo sapiens, NCI-H1299; H1299 (lung) cells, exposed for 96 hours; read-out: Cytotoxicity activity IC50 (50% inhibition of cell proliferation)", "protocol": "as §1"}},
  "data": [
    {"smiles": "O=C(O)c1cnn2c1nc(Nc1cccc(Cl)c1)c1ccncc12", "note": "[Compound 1, 5-((3-chlorophenyl)amino)pyrazolo[1,5-a]pyrido[4,3-e]pyrimidine-3-carboxylic acid]", "values": [
      {"measurement": "IC50", "setting": "MCF7 (breast)", "result": 5.2, "unit": "µM"},
      {"measurement": "IC50", "setting": "PC3 (prostate)", "result": 2.1, "unit": "µM"},
      {"measurement": "IC50", "setting": "MDA-MB-231 (breast)", "result": 4.4, "unit": "µM"},
      {"measurement": "IC50", "setting": "HL60 (leukemia)", "result": 3.9, "unit": "µM"},
      {"measurement": "IC50", "setting": "HCT116 (colon)", "result": 1.9, "unit": "µM"},
      {"measurement": "IC50", "setting": "A375 (melanoma)", "result": 4.3, "unit": "µM"},
      {"measurement": "IC50", "setting": "MIAPaCa-2 (pancreas)", "result": 1.1, "unit": "µM"},
      {"measurement": "IC50", "setting": "[1]", "result": 0.096, "unit": "µM"},
      {"measurement": "IC50", "setting": "H1299 (lung)", "result": 1.6, "unit": "µM"}
    ]}
  ]
}
